What was measured:
human Gal-3 (hGal-3) = human Gal-3 (hGal-3) (Homo sapiens (Human), UniProt P17931); experiment: Competitive binding assay: biotinylated hGal-3 to microplate-adsorbed asialofetuin (ASF); conditions: Activity on hGal-3; binding to ASF-coated plates, 3 hours at 4° C.; mean values
Method: Evaluation of Compound Inhibitory Activity (IC50)
The inhibitory activity of compounds is determined in competitive binding assays. This spectrophotometric assay measures the binding of biotinylated human Gal-3 (hGal-3) or human Gal-1 (hGal-1), respectively, to a microplate-adsorbed glycoprotein, asialofetuin (ASF) (Proc Natl Acad Sci USA. 2013 Mar. 26; 110(13):5052-7.). Alternatively, and preferably, a human Gal-1 version in which all six cysteines are substituted by serines may be used.
Briefly, compounds are serially diluted in DMSO (working dilutions). ASF-coated 384 well plates are supplemented with 22.8 μL/well of biotinylated hGal-3 or hGal-1 in assay buffer (i.e. 300-1000 ng/mL biotinylated hGal-3 or hGal-1) to which 1.2 µL of compound working dilutions are added and mixed.
Plates are incubated for 3 hours at 4° C., then washed with cold assay buffer (3×50 uL), incubated for 1 hour with 25 μL/well of a streptavidin-peroxidase solution (diluted in assay buffer to 80 ng/mL) at 4° C., followed by further washing steps with assay buffer (3×50 uL). Finally, 25 µL/well of ABTS substrate is added.
The calculated IC50 values may fluctuate depending on the daily assay performance. Fluctuations of this kind are known to those skilled in the art. IC50 values from several measurements are given as mean values.

human Gal-1 (hGal-1) = human Gal-1 (hGal-1) (Homo sapiens, UniProt P09382); experiment: Competitive binding assay: biotinylated hGal-1 to microplate-adsorbed asialofetuin (ASF); conditions: Activities on hGal-1; binding to ASF-coated plates, 3 hours at 4° C.; mean values; read-out: Gal-1 IC50
Method: Evaluation of Compound Inhibitory Activity (IC50) The inhibitory activity of compounds is determined in competitive binding assays. […] Alternatively, and preferably, a human Gal-1 version in which all six cysteines are substituted by serines may be used. Briefly, compounds are serially diluted in DMSO (working dilutions). […] Plates are incubated for 3 hours at 4° C., then washed with cold assay buffer (3×50 uL), incubated for 1 hour with 25 μL/well of a streptavidin-peroxidase solution (diluted in assay buffer to 80 ng/mL) at 4° C., followed by further washing steps with assay buffer (3×50 uL). Finally, 25 µL/well of ABTS substrate is added. […] The calculated IC50 values may fluctuate depending on the daily assay performance. Fluctuations of this kind are known to those skilled in the art. IC50 values from several measurements are given as mean values.

Chain of human Gal-1 (hGal-1) (P09382 2-135 limits assumed): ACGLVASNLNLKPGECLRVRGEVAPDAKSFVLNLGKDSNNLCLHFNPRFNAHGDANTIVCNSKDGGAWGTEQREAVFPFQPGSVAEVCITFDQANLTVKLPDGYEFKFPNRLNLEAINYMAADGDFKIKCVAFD
Chain of human Gal-3 (hGal-3) (P17931 whole entry): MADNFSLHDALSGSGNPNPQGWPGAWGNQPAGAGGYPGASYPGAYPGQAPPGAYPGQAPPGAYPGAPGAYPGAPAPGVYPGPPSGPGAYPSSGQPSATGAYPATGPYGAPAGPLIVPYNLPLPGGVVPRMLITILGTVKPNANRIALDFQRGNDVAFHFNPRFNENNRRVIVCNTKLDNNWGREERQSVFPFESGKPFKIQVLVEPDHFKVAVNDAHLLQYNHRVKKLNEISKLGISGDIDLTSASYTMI

| Molecule | IC50 (human Gal-3 (hGal-3)) [nM] | IC50 (human Gal-1 (hGal-1)) [nM] |
| --- | --- | --- |
| CO[C@@H]1[C@@H](n2cc(-c3cc(F)c(F)c(F)c3)nn2)[C@@H](O)[C@@H](CO)O[C@@H]1CC1=NOC2(CCC2)C1 [Example 1.10, (2R,3R,4S,5R,6R)-6-((5-oxa-6-azaspiro[3.4]oct-6-en-7-yl)methyl)-2-(hydroxymethyl)-5-methoxy-4-(4-(3,4,5-trifluorophenyl)-1H-1,2,3-triazol-1-yl)tetrahydro-2H-pyran-3-ol] | 620 | 2200 |
| CO[C@@H]1[C@@H](n2cc(-c3ccc(C)c(F)c3F)nn2)[C@@H](O)[C@@H](CO)O[C@@H]1CC1=NO[C@]2(CC[C@H](C(C)(C)O)CC2)C1 [Example 1.62, (2R,3R,4S,5R,6R)-4-(4-(2,3-difluoro-4-methylphenyl)-1H-1,2,3-triazol-1-yl)-2-(hydroxymethyl)-6-(((5r,8R)-8-(2-hydroxypropan-2-yl)-1-oxa-2-azaspiro[4.5]dec-2-en-3-yl)methyl)-5-methoxytetrahydro-2H-pyran-3-ol] | 190 | 4600 |
| CO[C@@H]1[C@@H](n2cc(-c3cc(F)c(F)c(F)c3)nn2)[C@@H](O)[C@@H](CO)O[C@@H]1CC1=NOC2(CCC(C(C)C)CC2)C1 (stereo partly drawn) [Example 1.25, (2R,3R,4S,5R,6R)-2-(hydroxymethyl)-6-((8-isopropyl-1-oxa-2-azaspiro[4.5]dec-2-en-3-yl)methyl)-5-methoxy-4-(4-(3,4,5-trifluorophenyl)-1H-1,2,3-triazol-1-yl)tetrahydro-2H-pyran-3-ol] | 1300 | 11100 |
| NC(=O)O[C@@H]1[C@@H](n2cc(-c3cc(F)c(F)c(F)c3)nn2)[C@@H](O)[C@@H](CO)O[C@@H]1CC1=NOC2(CCCCC2)C1 [Example 1.73, (2R,3R,4S,5R,6R)-2-((1-oxa-2-azaspiro[4.5]dec-2-en-3-yl)methyl)-5-hydroxy-6-(hydroxymethyl)-4-(4-(3,4,5-trifluorophenyl)-1H-1,2,3-triazol-1-yl)tetrahydro-2H-pyran-3-yl carbamate] | 110 | 6500 |
| CO[C@@H]1[C@@H](n2cc(-c3cc(F)c(F)c(F)c3)nn2)[C@@H](O)[C@@H](CO)O[C@@H]1CC1=NOC2(CCCCCC2)C1 [Example 1.38, (2R,3R,4S,5R,6R)-6-((1-oxa-2-azaspiro[4.6]undec-2-en-3-yl)methyl)-2-(hydroxymethyl)-5-methoxy-4-(4-(3,4,5-trifluorophenyl)-1H-1,2,3-triazol-1-yl)tetrahydro-2H-pyran-3-ol] | 160 | 6400 |
| CO[C@@H]1[C@@H](n2cc(-c3ccc(Cl)c(F)c3F)nn2)[C@@H](O)[C@@H](CO)O[C@@H]1CC1=NO[C@]2(CC[C@@H](NC(=O)OC(C)(C)C)CC2)C1 [Example 1.46, tert-butyl ((5s,8S)-3-(((2R,3R,4S,5R,6R)-4-(4-(4-chloro-2,3-difluorophenyl)-1H-1,2,3-triazol-1-yl)-5-hydroxy-6-(hydroxymethyl)-3-methoxytetrahydro-2H-pyran-2-yl)methyl)-1-oxa-2-azaspiro[4.5]dec-2-en-8-yl)carbamate] | 60 | 1800 |
| CO[C@@H]1[C@@H](n2cc(-c3ccc(Cl)c(F)c3F)nn2)[C@@H](O)[C@@H](CO)O[C@@H]1CC1=NOC2(CCCCC2)C1 [Example 1.22, (2R,3R,4S,5R,6R)-6-((1-oxa-2-azaspiro[4.5]dec-2-en-3-yl)methyl)-4-(4-(4-chloro-2,3-difluorophenyl)-1H-1,2,3-triazol-1-yl)-2-(hydroxymethyl)-5-methoxytetrahydro-2H-pyran-3-ol] | 76 | 3700 |
| CO[C@@H]1[C@@H](n2cc(-c3ccc(C)c(F)c3)nn2)[C@@H](O)[C@@H](CO)O[C@@H]1CC1=NOC2(CCCCC2)C1 [Example 1.20, (2R,3R,4S,5R,6R)-6-((1-oxa-2-azaspiro[4.5]dec-2-en-3-yl)methyl)-4-(4-(3-fluoro-4-methylphenyl)-1H-1,2,3-triazol-1-yl)-2-(hydroxymethyl)-5-methoxytetrahydro-2H-pyran-3-ol] | 120 | 5300 |
| CO[C@@H]1[C@@H](n2cc(-c3ccc(F)c(F)c3F)nn2)[C@@H](O)[C@@H](CO)O[C@@H]1CC1=NO[C@]2(CC[C@@H](C#N)CC2)C1 [Example 1.58, (5s,8S)-3-(((2R,3R,4S,5R,6R)-5-hydroxy-6-(hydroxymethyl)-3-methoxy-4-(4-(2,3,4-trifluorophenyl)-1H-1,2,3-triazol-1-yl)tetrahydro-2H-pyran-2-yl)methyl)-1-oxa-2-azaspiro[4.5]dec-2-ene-8-carbonitrile] | 110 | 640 |
| CO[C@@H]1[C@@H](n2cc(-c3ccc(Cl)c(F)c3F)nn2)[C@@H](O)[C@@H](CO)O[C@@H]1CC1=NO[C@]2(CC[C@H](C#N)CC2)C1 [Example 1.61, (5r,8R)-3-(((2R,3R,4S,5R,6R)-4-(4-(4-chloro-2,3-difluorophenyl)-1H-1,2,3-triazol-1-yl)-5-hydroxy-6-(hydroxymethyl)-3-methoxytetrahydro-2H-pyran-2-yl)methyl)-1-oxa-2-azaspiro[4.5]dec-2-ene-8-carbonitrile] | 49 | 460 |

Now from value to molecule:

| IC50 (human Gal-3 (hGal-3)) [nM] | IC50 (human Gal-1 (hGal-1)) [nM] | Molecule |
| --- | --- | --- |
| 80 | 6700 | Cc1ccc(-c2cn([C@H]3[C@@H](O)[C@@H](CO)O[C@H](CC4=NOC5(CCOCC5)C4)[C@@H]3OCC(=O)O)nn2)c(F)c1F [Example 2.24, 2-(((2R,3R,4S,5R,6R)-2-((1,8-dioxa-2-azaspiro[4.5]dec-2-en-3-yl)methyl)-4-(4-(2,3-difluoro-4-methylphenyl)-1H-1,2,3-triazol-1-yl)-5-hydroxy-6-(hydroxymethyl)tetrahydro-2H-pyran-3-yl)oxy)acetic acid] |
| 81 | 11500 | (2R,3R,4S,5R,6R)-6-((8,8-difluoro-1-oxa-2-azaspiro[4.5]dec-2-en-3-yl)methyl)-4-(4-(2,3-difluoro-4-methylphenyl)-1H-1,2,3-triazol-1-yl)-2-(hydroxymethyl)-5-methoxytetrahydro-2H-pyran-3-ol [Example 2.27] |
| 90 | 3500 | O=C(O)CO[C@@H]1[C@@H](n2cc(-c3cc(F)c(F)c(F)c3)nn2)[C@@H](O)[C@@H](CO)O[C@@H]1CC1=NOC2(CCCCC2)C1 [Example 2.26, 2-(((2R,3R,4S,5R,6R)-2-((1-oxa-2-azaspiro[4.5]dec-2-en-3-yl)methyl)-5-hydroxy-6-(hydroxymethyl)-4-(4-(3,4,5-trifluorophenyl)-1H-1,2,3-triazol-1-yl)tetrahydro-2H-pyran-3-yl)oxy)acetic acid] |
| 320 | 2900 | CO[C@@H]1[C@@H](n2cc(-c3cc(F)c(F)c(F)c3)nn2)[C@@H](O)[C@@H](CO)O[C@@H]1CC1=NOC2(CCC(=NO)CC2)C1 (stereo partly drawn) [Example 2.18, 3-(((2R,3R,4S,5R,6R)-5-hydroxy-6-(hydroxymethyl)-3-methoxy-4-(4-(3,4,5-trifluorophenyl)-1H-1,2,3-triazol-1-yl)tetrahydro-2H-pyran-2-yl)methyl)-1-oxa-2-azaspiro[4.5]dec-2-en-8-one oxime] |
| 140 | 1300 | CO[C@@H]1[C@@H](n2cc(-c3cc(F)c(F)c(F)c3)nn2)[C@@H](O)[C@@H](CO)O[C@@H]1CC1=NO[C@]2(CC[C@H](NC3CC3)CC2)C1 [Example 2.22, (2R,3R,4S,5R,6R)-6-(((5r,8R)-8-(cyclopropylamino)-1-oxa-2-azaspiro[4.5]dec-2-en-3-yl)methyl)-2-(hydroxymethyl)-5-methoxy-4-(4-(3,4,5-trifluorophenyl)-1H-1,2,3-triazol-1-yl)tetrahydro-2H-pyran-3-ol] |

Source: patent publication US20230295182A1, “SPIRO DERIVATIVES OF ALPHA-D-GALACTOPYRANOSIDES” (Idorsia Pharmaceuticals Ltd, priority 2020, published 2023)
